Source: patent US20180140579A1, “SACUBITRIL AND VALSARTAN FOR TREATING METABOLIC DISEASE” (NOVARTIS AG, priority 2015, published 2018)
Several values for one entry are separate records, joined by “and”; a condition that tells them apart may be missing. Equal values may be shown once.

Key:
[1] = system: patients with impaired glucose tolerance and cardiovascular disease or risk factors; conditions: valsartan for 5 years, along with lifestyle modification; cited from earlier work
[2] = system: patients with mild-to-moderate hypertension and abdominal adiposity; assay: Hyperinsulinemic-euglycemic glucose clamp (insulin sensitivity), clinical study NCT01631864; assay type: in vivo, human; conditions: for Glucose infusion rate by body weight (Mbw), Day 56, adjusted mean / Insulin sensitivity index, Day 56, adjusted mean: Day 56 (week 8)
Experimental: (§1) At baseline and week 8, peripheral insulin sensitivity (hyperinsulinemic-euglycemic glucose clamp), abdominal subcutaneous adipose tissue lipolysis (microdialysis), whole-body lipolysis (glycerol tracer kinetics), energy expenditure and substrate oxidation (indirect calorimetry) were determined.
Patients were also stratified into 4 groups based on the baseline Homeostasis Model Assessment of Insulin Resistance (HOMA-IR) (<2.5 and ≥2.5) and use of statin therapy within 8 weeks prior to randomization.
The HEGC assessment was performed on Day −1 (baseline) and on Day 56 under fasting conditions. A dorsal hand vein was catheterized and kept warm for arterialized blood sampling and the contralateral arm was cathetered for the infusion of glucose and insulin. […] Blood samples to determine glucose levels during the HEGC were collected continuously (automated clamp) or at approximately 5-min intervals (manual clamp). The last 30 minutes (minutes 90-120) of the clamp were considered as the steady state period and the mean glucose infusion rate was calculated for this time period.
The insulin sensitivity index (SI) was calculated from steady-state glucose infusion rates, and plasma insulin and glucose concentrations at steady-state (SI: Glucose infusion rate/[plasma glucose×plasma insulin], μg/kg*min/[mmol/L*pmol/L]). Furthermore whole-body glucose disposal rate (M, mg/min) was calculated from the mean glucose infusion rate at steady state to assess peripheral insulin sensitivity. Finally, the metabolic clearance rate (MCR) was calculated from M-value and the mean blood glucose concentration (BG) at steady-state (MCR: M/BG, min*mmol). The glucose disposal rate was also expressed per unit of insulin at steady-state, calculated from M-value and plasma insulin concentrations (M/l, U/min).
Differences between treatments for change in SI from baseline were analyzed as above.

[3] = system: patients with mild-to-moderate hypertension and abdominal adiposity; assay: Abdominal subcutaneous adipose tissue microdialysis (local lipolysis); assay type: in vivo, human; conditions: for Glucose in adipose tissue microdialysate, adjusted geometric mean ratio Day 57 vs Day 1 / Lactate in adipose tissue microdialysate, adjusted geometric mean ratio Day 57 vs Day 1 / Glycerol (free) in adipose tissue microdialysate, adjusted geometric mean ratio Day 57 vs Day 1 / interstitial glycerol levels at week 8 (subcutaneous adipose tissue lipolysis at rest): at rest; for Glycerol (free) in adipose tissue microdialysate, adjusted geometric mean ratio Day 57 vs Day 1: 8 weeks treatment; for interstitial glycerol levels at week 8 (subcutaneous adipose tissue lipolysis at rest): p=0.003 between groups
Experimental: Assessment of lipolysis at rest was performed on Day 1 prior to first dosage and on Day 57. Abdominal subcutaneous adipose tissue lipolysis was assessed by microdialysis in the fasting condition. […] Microdialysate samples for measurement of the analytes were collected at 30 minutes and 45 minutes in the flow calibration phase. Glycerol (an indicator of local lipolysis), glucose, and lactate concentrations were measured in the microdialysate, reflecting the interstitial concentrations in the adipose tissue. The ethanol ratio (ratio of ethanol concentration in dialysate to ethanol concentration in perfusate) was measured as an indicator of adipose tissue blood flow. For abdominal subcutaneous adipose tissue microdialysate data (ethanol ratio, dialysate lactate, dialysate glucose, and plasma glycerol, glycerol, NEFA, glucose, insulin, adrenalin, and noradrenalin) at rest, data was analyzed using repeated measures analysis on log transformed values with treatment, visit, time and treatment*visit*time interaction as fixed effects.

[4] = system: patients with mild-to-moderate hypertension and abdominal adiposity; assay: Energy expenditure and substrate oxidation by indirect calorimetry; assay type: in vivo, human; conditions: LCZ696 400 mg QD or amlodipine 10 mg QD; for Respiratory quotient (carbon dioxide to oxygen ratio), Day 57 adjusted mean (95% CI): Day 57, at rest
Experimental: as §1
Energy expenditure and substrate oxidation were assessed in parallel by indirect calorimetry using a ventilated hood system. The ventilated hood measurements were recorded for 30 minutes in the resting state (during the flow calibration phase).

[5] = system: patients with mild-to-moderate hypertension and abdominal adiposity; assay: Blood pressure monitoring (mean seated BP); assay type: in vivo, human; conditions: Day 57 vs baseline; LCZ696 400 mg QD or amlodipine 10 mg QD
Excerpt: Seating BP was monitored at screening and throughout the study using the same equipment. During the home stay period, patients were given a home measurement device and instructed to monitor BP twice weekly at approximately the same time each morning (7-9 AM).

[6] = system: patients with mild-to-moderate hypertension and abdominal adiposity; assay: Safety assessments (adverse events); assay type: in vivo, human; conditions: for Discontinuations due to AEs: LCZ696 N = 50, amlodipine N = 48
Experimental: Safety assessments included adverse events (AEs) and serious adverse events (SAEs) and were conducted throughout the study by regular monitoring of hematology, blood chemistry and urine analysis as well as assessments of vital signs (BP and pulse measurements), ECG, physical condition and body weight. The pharmacodynamics (PD) analysis set included all patients with available PD data and no protocol deviations with relevant impact on PD data. The safety analysis set included all patients who received any of the study drugs.

[7] = system: patients with mild-to-moderate hypertension and abdominal adiposity; assay: Abdominal subcutaneous adipose tissue microdialysis (local lipolysis); assay type: in vivo, human
[8] = LCZ696 400 mg QD or amlodipine 10 mg QD
[9] = LCZ696 400 mg QD or amlodipine 10 mg QD, listed as AML
[10] = baseline to Day 56, LCZ696 400 mg QD or amlodipine 10 mg QD, 8 weeks
[11] = safety analysis set, 8-week treatment
[12] = 15 min exercise, p=0.014 between groups
[13] = 30 min exercise, p=0.010 between groups

Row | SMILES | Glucose infusion rate by body weight (Mbw), Day 56, adjusted mean [2, 8] | Insulin sensitivity index, Day 56, adjusted mean [2, 8] | Glucose in adipose tissue microdialysate, adjusted geometric mean ratio Day 57 vs Day 1 ([3]; 30 + 45 min combined, (95% CI)) | Lactate in adipose tissue microdialysate, adjusted geometric mean ratio Day 57 vs Day 1 ([3]; 30 + 45 min combined, (95% CI)) | Glycerol (free) in adipose tissue microdialysate, adjusted geometric mean ratio Day 57 vs Day 1 ([3]; 30 min time point, (95% CI)) | Glucose in adipose tissue microdialysate, adjusted geometric mean ratio Day 57 vs Day 1 ([3]; 30 min time point, (95% CI)) | Lactate in adipose tissue microdialysate, adjusted geometric mean ratio Day 57 vs Day 1 ([3]; 30 min time point, (95% CI)) | Glycerol (free) in adipose tissue microdialysate, adjusted geometric mean ratio Day 57 vs Day 1 ([3]; 45 min time point, (95% CI)) | Glucose in adipose tissue microdialysate, adjusted geometric mean ratio Day 57 vs Day 1 ([3]; 45 min time point, (95% CI)) | Lactate in adipose tissue microdialysate, adjusted geometric mean ratio Day 57 vs Day 1 ([3]; 45 min time point, (95% CI)) | interstitial glycerol levels at week 8 (subcutaneous adipose tissue lipolysis at rest) [3] | Respiratory quotient (carbon dioxide to oxygen ratio), Day 57 adjusted mean (95% CI) [4] | Resting energy expenditure, Day 57 adjusted mean (95% CI) [4] | mean reduction in msDBP (mean seated diastolic blood pressure) [5] | mean reduction in msSBP (mean seated systolic blood pressure) [5] | Discontinuations due to AEs ([6]; 8-week treatment) | AEs suspected to be study drug related [6, 11] | Peripheral edema reported [6, 11] | overall incidence of AEs [6, 11] | microdialysate glycerol at week 8 [7, 12] | also measured
1 | CCCCC(=O)N(Cc1ccc(-c2ccccc2-c2nnn[nH]2)cc1)[C@H](C(=O)O)C(C)C [valsartan, S—N-valeryl-N-{[2′-(1H-tetrazole-5-yl)-biphenyl-4-yl]-methyl}-valine] | – | – | – | – | – | – | – | – | – | – | – | – | – | – | – | – | – | – | – | – | relative reduction in the incidence of diabetes [1]: 14%
2 | CCOC(=O)C1=C(COCCN)NC(C)=C(C(=O)OC)C1c1ccccc1Cl (stereo not drawn) [Amlodipine, reference compound] | 3.87 mg/(min * kg) | 1.75 μg/kg * min/(mmol/L * pmol/L) | 0.99 (0.85; 1.16) | 0.90 (0.70; 1.16) | 0.87 (0.76; 0.99) | 1.00 (0.85; 1.16) | 0.91 (0.69; 1.19) | 0.85 (0.74; 0.98) | 0.98 (0.83; 1.16) | 0.90 (0.70; 1.16) | 63.99 µmol/L | 0.77 (0.746; 0.804) | 1991.4 (1904.82; 2078.01) kcal | −10.0±7.8 mmHg | −12.4±14.7 mmHg | three | 46% | 16 patients | 77.1% | 128.8 µmol/L | Glucose infusion rate by body weight (Mbw), Day 56, adjusted mean [2, 9]: 3.88 mg/(min * kg); Insulin sensitivity index, Day 56, adjusted mean [2, 9]: 1.76 μg/kg * min/(mmol/L * pmol/L); Glucose infusion rate by body weight (Mbw), adjusted mean change from baseline [2, 10]: 0.03 mg/(min * kg); Insulin sensitivity index, adjusted mean change from baseline [2, 10]: 0.065 μg/kg * min/(mmol/L * pmol/L); Insulin sensitivity index, adjusted mean change from baseline ([2]; baseline to Day 56, LCZ696 400 mg QD or amlodipine 10 mg QD, 8 weeks, listed as amlodipine): +0.065 μg/kg * min/(mmol/L * pmol/L); Glycerol (free) in adipose tissue microdialysate, adjusted geometric mean ratio Day 57 vs Day 1 ([3]; 30 + 45 min time points combined, (95% CI)): 0.86 (0.75; 0.97); microdialysate glycerol at week 8 [7, 13]: 149.19 µmol/L
3 | CCCCC(=O)N(Cc1ccc(-c2ccccc2-c2nn[n-]n2)cc1)C(C(=O)[O-])C(C)C.CCOC(=O)C(C)CC(Cc1ccc(-c2ccccc2)cc1)NC(=O)CCC(=O)[O-].[Na+].[Na+].[Na+] [LCZ696, trisodium [3-((1S,3R)-1-biphenyl-4-ylmethyl-3-ethoxycarbonyl-1-butylcarbamoyl)propionate-(S)-3′-methyl-2′-(pentanoyl{2″-(tetrazol-5-ylate)biphenyl-4′-ylmethyl}amino)butyrate] hemipentahydrate] | 4.49 mg/(min * kg) | 1.88 μg/kg * min/(mmol/L * pmol/L) and 1.86 μg/kg * min/(mmol/L * pmol/L) | 1.02 (0.88; 1.18) | 0.84 (0.66; 1.06) | 1.02 (0.90; 1.16) | 1.03 (0.86; 1.20) | 0.81 (0.63; 1.04) | 1.07 (0.94; 1.22) | 1.01 (0.86; 1.18) | 0.86 (0.68; 1.09) | 80.53 µmol/L | 0.78 (0.760; 0.814) | 1960.1 (1879.42; 2040.90) kcal | −12.4±9.1 mmHg | −21.0±16.1 mmHg | two | 24% | one | 60.0% | 153.1 µmol/L | Metabolic clearance rate, Day 56, adjusted mean ([2]; Day 56, LCZ696 400 mg QD or amlodipine 10 mg QD): 79.07 mmol·min; Insulin sensitivity index, Treatment Difference (LCZ696-Amlodipine) ([2]; difference in adjusted mean change from baseline to Day 56 (95% CI), not statistically significant): 0.128 (−0.155; 0.410) μg/kg * min/(mmol/L * pmol/L); Glucose infusion rate by body weight (Mbw), Treatment Difference (LCZ696-Amlodipine) ([2]; difference in adjusted mean change from baseline to Day 56 (95% CI), p = 0.016): 0.61 (0.12; 1.11) mg/(min * kg); Metabolic clearance rate, Treatment Difference (LCZ696-Amlodipine) ([2]; difference in adjusted mean change from baseline to Day 56 (95% CI), p = 0.0312): 9.66 (0.89; 18.42) min * mmol; Glucose, Treatment differences, ratio of GMR (LCZ696 vs amlodipine) ([3]; 30 + 45 min combined, (95% CI)): 1.03 (0.83; 1.27); Lactate, Treatment differences, ratio of GMR (LCZ696 vs amlodipine) ([3]; 30 + 45 min combined, (95% CI)): 0.93 (0.65; 1.31); Glucose, Treatment differences, ratio of GMR (LCZ696 vs amlodipine) ([3]; 30 min time point, (95% CI)): 1.03 (0.82; 1.29); Glycerol (free), Treatment differences, ratio of GMR (LCZ696 vs amlodipine) ([3]; 30 min time point, (95% CI)): 1.18 (0.96; 1.43); Lactate, Treatment differences, ratio of GMR (LCZ696 vs amlodipine) ([3]; 30 min time point, (95% CI)): 0.89 (0.62; 1.29); Glucose, Treatment differences, ratio of GMR (LCZ696 vs amlodipine) ([3]; 45 min time point, (95% CI)): 1.03 (0.82; 1.29); Lactate, Treatment differences, ratio of GMR (LCZ696 vs amlodipine) ([3]; 45 min time point, (95% CI)): 0.96 (0.68; 1.36); change in ethanol ratio (indicator of adipose tissue blood flow), between treatment groups ([3]; LCZ696 vs amlodipine, any time point except 45 minute time point in the LCZ696 group (small, not considered relevant)): No significant differences; mild orthostatic hypertension reported ([6]; both resolved by the end of the study, suspected to be related to study drug): Two; Pruritus reported [6, 11]: five; microdialysate glycerol at week 8 [7, 13]: 187.63 µmol/L
